In patent publication US10835605B2, “Preparations of poly(lactic-co-glycolic acid)/polydopamine core/shell hybrid nanoparticle for photothermal applications” (UNIVERSITY OF SOUTH CAROLINA, priority 2015, dated 2020):

What was measured:
[1] = tested on: UMSCC 22A cells; assay: In vitro cytotoxicity (MTT cell proliferation assay) with or without NIR irradiation; assay type: cell-based; settings: FIG. 9
Description: The cytotoxicity of nanoparticles was evaluated by MTT assay. UMSCC 22A cells were seeded in 96-well plate (20,000 cells/well) for 24 h prior to the study. Following, either free DOX or DOX@PLGA/PD-PEG nanoparticles with DOX concentration equal to 2, 5 and 10 μg/mL were added. For comparison, PLGA/PD-PEG (no DOX encapsulation) nanoparticles were also added. The cells were then incubated 3 h in 95/5% air/CO2 at 37° C. followed by irradiation under a 808 nm laser for 10 min. After that, all wells were washed 2 times and replaced with fresh culture medium and kept incubation for another 24 h. Finally, MTT reagent (100 μL, 10%(w/w) in medium) was added and incubated for 4h, following the addition of MTT stop solution and the measurement of the optical density of the medium using a microplate reader (ELX808, Bio-Tech Instrument, Inc.) at λ=595 nm.

[2] = tested on: UMSCC 22A cells; assay: Cellular uptake by confocal microscopy and flow cytometry; assay type: cell-based; settings: flow cytometry, 3 h incubation, FIG. 8
Description: UMSCC 22A cells (300,000cells/well) were seeded in 6-well plates overnight. After that, DOX, DOX@PLGA/PD-PEG, and DOX@PLGA/PD-C nanoparticles were added at the DOX equivalent concentration of 1 μg/m L. In order to investigate the effect of EGFR on the cellular uptake of DOX@PLGA/PD-C nanoparticle, cells were pretreated with free anti-EGFR antibody (200 μg/mL) 30 min before adding DOX@PLGA/PD-C nanoparticles. The plate was incubated at 37° C. for 3 h. Then cells were washed, trypsinized and resuspended in PBS. DOX-positive cell population was quantified at Ex=488 nm, Em=585 nm using flow cytometry (BD Accuri C6, BD Biosciences).

[3] = TEM analysis of heart tissue (cardiotoxicity); assay type: in vivo, mice; settings: hearts collected after 24 days; DOX@PLGA/PD-C coupled with NIR irradiation
Description: To study the cardiotoxicity of DOX, the hearts of the mice were analyzed by TEM. The formalin fixed samples were further fixed with 1% perosmic oxide for 2 h at 4° C., washed with water and then dehydrated in a series of alcohol solutions, embedded, and sliced with the thickness between 50 and 70 nm. TEM analysis was performed on Hitachi H8000 operating at 200 kV.

[4] = tested on: UMSCC 22A cells; assay: Tumor growth inhibitory assay, subcutaneous head and neck cancer mouse model; assay type: in vivo, female Balb/c nude mice
Description: UMSCC 22A cells (3×10^6 cells in 100 μL DMEM medium) were inoculated subcutaneously in female Balb/c nude mice (8-10 week old, ˜20 g, Jackson Laboratory). The tumor volume was measured by a digital caliper and calculated according to the following formula: Tumor volume=tumor length)×(tumor width)^2/2. […] For the control group, PBS was injected. Mice were exposed to an 808 nm laser irradiation (2.83 W/cm^2) 3 h post injection for 10 min. The temperature of the mice during the irradiation was recorded by the FLIR thermal camera. The tumor volumes (V) of the mice were measured every other day for 24 days. The relative tumor volume expressed as V/V0 (V0 was the tumor volume when the treatment was initiated) was used to represent the tumor size change during the whole treatment process. After 24 days, the mice were sacrificed and the blood, tumor, liver, heart, lung, kidneys, and spleen were collected for further analysis. All organs were firstly fixed in 10% neutral buffered formalin for 48 h and then washed with PBS and finally kept in 70% ethanol at 4° C.

## COc1cccc2c1C(=O)c1c(O)c3c(c(O)c1C2=O)C[C@@](O)(C(=O)CO)C[C@@H]3O[C@H]1C[C@H](N)[C@H](O)[C@H](C)O1 [free DOX, Doxorubicin]
[1]
  cell killing effect versus other treatments: higher cell killing effect than other treatments except at 10 μM dose
[2]
  speed of entry into cancer cells: entered cancer cells faster than the DOX@PLGA/PD-C nanoparticles
[3]
  heart tissue structure (mitochondria) by TEM: significantly compromised
[4]; 24-day observation
  tumor recurrence / regrowth: gradually bounced back 10 days post treatment
[4]; intratumoral, 40 μL, DOX equivalent 15 μg/mL, DOX@PLGA/PD-C coupled with NIR irradiation
  tumor response after treatment: only slightly reduced tumor size
[4]; tumors collected after 24 days
  H&E staining of tumor tissue: kept the characteristics of squamous cell carcinoma
